# In patent US10981940B2, “Trityl protecting agent” (SEKISUI MEDICAL CO., LTD., priority 2016, dated 2021):
# Where a SMILES comes first, the peptide text is derived from it.
# Assay: Solubility in CPME (cyclopentyl methyl ether), dissolved to saturation at 25° C.
# Assay type: physicochemical
# Details: dissolved to saturation in CPME (cyclopentyl methyl ether) at 25° C.
# Method: Peptide used as a model: H-Phe-Leu-Gly-OH
# H-Phe-Leu-Gly-OH and H-Phe-Leu-Gly-O-(TIPS2-4,4′-diClTrt) were synthesized, and the respective compounds were dissolved to saturation in CPME (cyclopentyl methyl ether) at 25° C. Thus, the solubilities were measured.
row,Structure (SMILES),solubility [mM]
1,"CC(C)C[C@H](NC(=O)[C@@H](N)Cc1ccccc1)C(=O)NCC(=O)OC(c1ccc(Cl)cc1)(c1ccc(Cl)cc1)c1cc(OCCCCCCCCCCCO[Si](C(C)C)(C(C)C)C(C)C)cc(OCCCCCCCCCCCO[Si](C(C)C)(C(C)C)C(C)C)c1 [H-Phe-Leu-Gly-O-(TIPS2-4,4′-diClTrt)]",≥ 1030
2,CC(C)C[C@H](NC(=O)[C@@H](N)Cc1ccccc1)C(=O)NCC(=O)O [H-Phe-Leu-Gly-OH] (H-Phe-Leu-Gly-OH),0.9
